Experimental data taken from article PMC11747885, “Potent inhibitors of the human RNA ligase Rlig1 highlights its role in RNA integrity maintenance under oxidative cellular stress” (Chemical Science, 2025).

Biological target: T1, Rlig1-AMP (Homo sapiens, UniProt Q8N999)
T1 construct: made in house; host or cells: E. coli BL21 (DE3), pET15b-Rlig1
Test: FRET-based high-throughput screening of inhibitors for Rlig1-AMP
Format: biochemical
Conditions: for Raw data [w Enyzm]: with enzyme; for Raw data [w/o Enzym]: without enzyme

[1] = HTS hits, difference of raw data w/o and w enzyme
[2] = HTS hits, normalised value of 1-D Distance
[3] = sheet HTS hits, MedChemExpress library
[4] = sheet HTS hits, difference of raw data w/o and w enzyme
[5] = HTS hits, MedChemExpress library
[6] = HTS hits, difference of raw data without and with enzyme

T1 sequence (Q8N999 whole entry): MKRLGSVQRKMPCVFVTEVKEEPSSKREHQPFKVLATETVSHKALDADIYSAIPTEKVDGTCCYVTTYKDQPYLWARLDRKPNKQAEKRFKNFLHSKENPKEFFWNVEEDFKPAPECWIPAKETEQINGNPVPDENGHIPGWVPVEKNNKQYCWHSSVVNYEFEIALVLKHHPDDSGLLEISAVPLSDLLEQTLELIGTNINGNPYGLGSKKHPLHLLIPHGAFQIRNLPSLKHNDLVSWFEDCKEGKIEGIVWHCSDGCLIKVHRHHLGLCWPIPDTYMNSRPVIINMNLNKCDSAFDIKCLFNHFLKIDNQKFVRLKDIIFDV

Row | Compound | 1-D Distance [1] | Raw data [w Enyzm] (HTS hits) | Raw data [w/o Enzym] (HTS hits) | 1-D Distance.npi [3] | 1-D Distance [4] | Raw data [w Enyzm] (sheet HTS hits) | Raw data [w/o Enzym] (sheet HTS hits) | 1-D Distance [6] | also measured
1 | CCCCCCCCN=c1ccn(CCCCCCCCCCn2ccc(=NCCCCCCCC)cc2)cc1.Cl.Cl [Octenidine (dihydrochloride)] | 1500 | 8818 | 7318 | – | – | – | – | – | 1-D Distance.npi [2]: 76.2265
2 | C/C1=C2N=C(/C=C3N=C(/C(C)=C4\[N-]C(C(CC(N)=O)C4(C)CCC(=O)NCC(C)OP(=O)([O-])OC4C(CO)OC(n5cnc6cc(C)c(C)cc65)C4O)C4(C)N=C1C(CCC(N)=O)C4(C)CC(N)=O)C(CCC(N)=O)C\3(C)C)C(CCC(N)=O)C/2(C)CC(N)=O.Cl.[Co+3].[OH-] (centres unmarked) [Hydroxocobalamin (monohydrochloride)] | – | – | – | 101.9 | 179 | 5221 | 5042 | – | –
3 | Cl.NC(CO)(CO)CCc1ccc(Sc2cccc(OCc3ccccc3)c2)cc1Cl [Mocravimod (hydrochloride)] | – | 8286 | 8462 | – | – | – | – | 176 | 1-D Distance.npi [5]: 104.362
4 | CCC(O)C(=O)[O-].[Na+] (centres unmarked) [Sodium 2-hydroxybutanoate] | 1888 | 8789 | 10677 | – | – | – | – | – | 1-D Distance.npi [2]: 73.0807
5 | CC(C)(C)OC(=O)CCOCCBr [Bromo-PEG1-C2-Boc] | – | – | – | 72.9978 | 1882 | 9154 | 11036 | – | –
6 | CC(=O)Nc1cc(Oc2ccc3c(C(=O)Nc4ccc(CN5CCN(C)CC5)c(C(F)(F)F)c4)cccc3c2)ncn1 [BGG463] | 797 | 8276 | 9073 | – | – | – | – | – | 1-D Distance.npi (HTS hits, normalized value (npi)): 93.5609
7 | COc1cccc2c1C(=N)c1c(O)c3c(c(O)c1C2=O)C[C@@](O)(C(C)=O)C[C@@H]3O[C@H]1C[C@H](N)[C@H](O)[C@H](C)O1 [5-Iminodaunorubicin] | 1374 | 2360 | 3734 | – | – | – | – | – | 1-D Distance.npi [2]: 80.0753
8 | C#CCOCCOCCOCCOCC#C [Bis-propargyl-PEG3] | – | – | – | 78.8376 | 1567 | 9208 | 10775 | – | –
9 | CCCCCOc1ccccc1/C(=C\SC)n1ccnc1.Cl [Neticonazole (hydrochloride)] | – | 9255 | 10970 | – | – | – | – | 1715 | 1-D Distance.npi [5]: 74.1423
10 | COc1cccc2c1C(=O)c1c(O)c3c(c(O)c1C2=O)C[C@@](O)(C(=O)CO)C[C@@H]3O[C@H]1C[C@H](N)[C@@H](O)[C@H](C)O1.Cl [Epirubicin (hydrochloride)] | – | 1246 | – | – | – | – | – | 316 | 1-D Distance.npi [5]: 99.0682
11 | CC(=O)O[C@H]1C[C@@]2(C)[C@@H](C[C@@H](O)[C@H]3[C@@]4(C)CC[C@@H](O)[C@@H](C)[C@@H]4CC[C@@]32C)/C1=C(\CCC=C(C)C)C(=O)[O-].[Na+] [Fusidic acid (sodium salt)] | – | – | – | 75.4657 | 1636 | 9299 | 10935 | – | –
12 | Plicamycin | – | 9254 | 11211 | – | – | – | – | 1957 | –
13 | CC1CS(=O)(=O)CCN1/N=C/c1ccc([N+](=O)[O-])o1 (centres unmarked) [Nifurtimox] | 1863 | 7893 | – | – | – | – | – | – | –
14 | CC(=O)[C@]1(O)Cc2c(O)c3c(c(O)c2[C@@H](O[C@H]2C[C@H](N)[C@H](O)[C@H](C)O2)C1)C(=O)c1ccccc1C3=O.Cl [Idarubicin (hydrochloride)] | – | 5823 | 7545 | – | – | – | – | 1722 | 1-D Distance.npi [5]: 74.8199
15 | N[C@@H](CS)C(=O)O [L-Cysteine] | 1124 | 9158 | 10282 | – | – | – | – | – | –
16 | COc1cccc2c1C(=N)c1c(O)c3c(c(O)c1C2=O)C[C@@](O)(C(C)=O)C[C@@H]3O[C@H]1C[C@H](N)[C@H](O)[C@H](C)O1.Cl [5-Iminodaunorubicin (hydrochloride)] | – | – | – | 90.1534 | 802 | 2925 | 3727 | – | –
